Legend:
HSP90β [1] = biological target: T1, HSP90β (Homo sapiens, UniProt P08238, C366S); experiment: colorimetric ATPase assay and MANT-ADP binding assay at […] TL; type: biochemical
T1 construct: gene HSP90AB1; recombinant HSP90β C366S

HSP90β [2] = biological target: T2, HSP90β (Homo sapiens, UniProt P08238); experiment: colorimetric ATPase assay with recombinant protein; also MANT-ADP binding and CDC37 pulldown; type: biochemical
T2 construct: gene HSP90AB1; recombinant HSP90β expressed in BL21(DE3) from pET52b
T2 sequence (P08238 2-724): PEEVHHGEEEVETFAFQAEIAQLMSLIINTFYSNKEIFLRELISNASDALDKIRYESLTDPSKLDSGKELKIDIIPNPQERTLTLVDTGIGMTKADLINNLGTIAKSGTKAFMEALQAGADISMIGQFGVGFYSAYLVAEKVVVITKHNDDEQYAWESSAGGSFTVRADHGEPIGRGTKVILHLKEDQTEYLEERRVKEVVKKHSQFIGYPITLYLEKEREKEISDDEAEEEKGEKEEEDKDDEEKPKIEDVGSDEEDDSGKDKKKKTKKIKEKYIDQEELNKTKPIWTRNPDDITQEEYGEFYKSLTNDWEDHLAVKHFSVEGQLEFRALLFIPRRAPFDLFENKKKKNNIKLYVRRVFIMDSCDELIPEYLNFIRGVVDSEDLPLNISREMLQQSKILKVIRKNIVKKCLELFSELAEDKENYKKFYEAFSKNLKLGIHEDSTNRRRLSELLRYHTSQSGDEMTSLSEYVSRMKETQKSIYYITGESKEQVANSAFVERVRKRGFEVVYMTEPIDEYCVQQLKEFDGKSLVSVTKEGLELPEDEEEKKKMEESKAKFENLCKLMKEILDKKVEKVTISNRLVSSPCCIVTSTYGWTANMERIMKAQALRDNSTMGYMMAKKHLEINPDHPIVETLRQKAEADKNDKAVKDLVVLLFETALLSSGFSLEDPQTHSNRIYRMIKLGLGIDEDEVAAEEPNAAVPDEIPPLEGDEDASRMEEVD

T1 sequence (P08238 2-724 C366S): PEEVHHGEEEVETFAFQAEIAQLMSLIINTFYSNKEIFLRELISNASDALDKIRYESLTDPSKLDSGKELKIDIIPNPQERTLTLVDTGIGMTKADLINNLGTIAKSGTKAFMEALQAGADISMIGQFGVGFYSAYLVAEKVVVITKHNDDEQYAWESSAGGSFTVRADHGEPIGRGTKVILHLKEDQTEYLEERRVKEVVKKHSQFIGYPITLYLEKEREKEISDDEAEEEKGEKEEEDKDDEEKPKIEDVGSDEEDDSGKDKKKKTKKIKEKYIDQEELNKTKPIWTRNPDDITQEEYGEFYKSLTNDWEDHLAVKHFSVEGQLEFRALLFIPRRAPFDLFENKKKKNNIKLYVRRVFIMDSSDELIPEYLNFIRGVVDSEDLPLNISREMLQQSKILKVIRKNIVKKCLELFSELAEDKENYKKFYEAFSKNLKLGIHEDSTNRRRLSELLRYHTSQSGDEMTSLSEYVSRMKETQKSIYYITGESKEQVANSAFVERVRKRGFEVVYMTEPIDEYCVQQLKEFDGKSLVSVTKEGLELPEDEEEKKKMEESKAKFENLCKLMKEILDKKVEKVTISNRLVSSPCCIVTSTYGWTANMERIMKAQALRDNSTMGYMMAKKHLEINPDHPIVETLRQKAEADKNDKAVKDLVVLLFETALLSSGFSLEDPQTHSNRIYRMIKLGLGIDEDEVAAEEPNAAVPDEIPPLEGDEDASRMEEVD

SMILES: CC(C)[C@]12O[C@H]1[C@@H]1O[C@]13[C@]1(O[C@H]1C[C@H]1C4=C(CC[C@@]13C)C(=O)OC4)[C@@H]2O [TL, Triptolide]
- colorimetric ATPase assay and MANT-ADP binding assay at 50 μM TL (HSP90β [1]): TL exhibited a similar inhibitory effect on both HSP90β^WT and HSP90β^C366S
- IC50 (HSP90β [2]): 29.9 µM

Source: paper PMC5976465, “Triptolide, a HSP90 middle domain inhibitor, induces apoptosis in triple manner” (Oncotarget, 2018)
